Several values for one entry are separate records, joined by “and”; a condition that tells them apart may be missing. Identical values can stand only once. Inconclusive results and toxic doses are left out. No stated cut-off is given here; in the data, active means T/C of 150% or more; inactive means T/C below 125%.
Tested on: L1210 leukemia ip in BDF1 mice, survival T/C
Experiment: NCI In Vivo Anticancer Drug Screen. Data for tumor model L1210 Leukemia (intraperitoneal) in B6D2F1 (BDF1) mice
Settings: endpoint: mean survival time, higher = longer survival
How it was run: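 Read-out is survival time, reported as the treated-group measurement over the vehicle-control measurement.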

[1] = dose: 100.0 mg/kg/injection, schedule: Q04DX002 (ip), vehicle: Klucel (hydroxypropylcellulose) (HPC)
[2] = dose: 200.0 mg/kg/injection, schedule: Q04DX002 (ip), vehicle: Klucel (hydroxypropylcellulose) (HPC)
[3] = dose: 400.0 mg/kg/injection, schedule: Q04DX002 (ip), vehicle: Klucel (hydroxypropylcellulose) (HPC)
[4] = dose: 100.0 mg/kg/injection, schedule: Q01DX001 (ip), vehicle: carboxymethylcellulose (CMC)
[5] = dose: 200.0 mg/kg/injection, schedule: Q01DX001 (ip), vehicle: carboxymethylcellulose (CMC)
[6] = dose: 400.0 mg/kg/injection, schedule: Q01DX001 (ip), vehicle: carboxymethylcellulose (CMC)
[7] = dose: 100.0 mg/kg/injection, schedule: Q01DX009 (ip), vehicle: Klucel (hydroxypropylcellulose) (HPC)
[8] = dose: 200.0 mg/kg/injection, schedule: Q01DX009 (ip), vehicle: Klucel (hydroxypropylcellulose) (HPC)
[9] = dose: 100.0 mg/kg/injection, schedule: Q04DX003 (ip), vehicle: Klucel (hydroxypropylcellulose) (HPC)
[10] = dose: 200.0 mg/kg/injection, schedule: Q04DX003 (ip), vehicle: Klucel (hydroxypropylcellulose) (HPC)
[11] = dose: 50.0 mg/kg/injection, schedule: Q01DX009 (ip), vehicle: saline with Tween-80
[12] = dose: 100.0 mg/kg/injection, schedule: Q01DX009 (ip), vehicle: saline with Tween-80
[13] = dose: 200.0 mg/kg/injection, schedule: Q01DX009 (ip), vehicle: saline with Tween-80
[14] = dose: 400.0 mg/kg/injection, schedule: Q01DX009 (ip), vehicle: saline with Tween-80
[15] = dose: 100.0 mg/kg/injection, schedule: Q01DX001 (ip), vehicle: Klucel (hydroxypropylcellulose) (HPC)
[16] = dose: 200.0 mg/kg/injection, schedule: Q01DX001 (ip), vehicle: Klucel (hydroxypropylcellulose) (HPC)
[17] = dose: 400.0 mg/kg/injection, schedule: Q01DX001 (ip), vehicle: Klucel (hydroxypropylcellulose) (HPC)
[18] = dose: 50.0 mg/kg/injection, schedule: Q04DX003 (ip), vehicle: Klucel (hydroxypropylcellulose) (HPC)
[19] = dose: 100.0 mg/kg/injection, schedule: Q01DX001 (ip), vehicle: saline
[20] = dose: 200.0 mg/kg/injection, schedule: Q01DX001 (ip), vehicle: saline
[21] = dose: 400.0 mg/kg/injection, schedule: Q01DX001 (ip), vehicle: saline
[22] = dose: 100.0 mg/kg/injection, schedule: Q04DX002 (ip), vehicle: saline with Tween-80
[23] = dose: 200.0 mg/kg/injection, schedule: Q04DX002 (ip), vehicle: saline with Tween-80
[24] = dose: 400.0 mg/kg/injection, schedule: Q04DX002 (ip), vehicle: saline with Tween-80
[25] = dose: 50.0 mg/kg/injection, schedule: Q01DX001 (ip), vehicle: saline

Measured: T/C

O=C(Nc1ccc(C(=O)CCl)cc1)Nc1ccc(C(=O)CCl)cc1
inactive: dose: 100.0 mg/kg/injection, schedule: Q01DX005 (ip), vehicle: saline 100 % of control | dose: 100.0 mg/kg/injection, schedule: Q04DX003 (ip), vehicle: saline 101 % of control | dose: 200.0 mg/kg/injection, schedule: Q01DX005 (ip), vehicle: saline 102 % of control | dose: 200.0 mg/kg/injection, schedule: Q04DX003 (ip), vehicle: saline 104 % of control | dose: 400.0 mg/kg/injection, schedule: Q01DX005 (ip), vehicle: saline 103 % of control | dose: 400.0 mg/kg/injection, schedule: Q04DX003 (ip), vehicle: saline 93 % of control

CCCCCCCCCCCCCCCCCCNC(=O)NCCN(C)c1ccccc1
inactive: dose: 100.0 mg/kg/injection, schedule: Q01DX009 (ip), vehicle: carboxymethylcellulose (CMC) 87 % of control and 91 % of control | [1] 108 % of control | dose: 100.0 mg/kg/injection, schedule: Q04DX002 (ip), vehicle: carboxymethylcellulose (CMC) 95 % of control and 97 % of control | dose: 100.0 mg/kg/injection, schedule: Q04DX003 (ip), vehicle: carboxymethylcellulose (CMC) 95 % of control | dose: 200.0 mg/kg/injection, schedule: Q01DX009 (ip), vehicle: carboxymethylcellulose (CMC) 90 % of control | [2] 112 % of control | dose: 200.0 mg/kg/injection, schedule: Q04DX002 (ip), vehicle: carboxymethylcellulose (CMC) 93 % of control and 95 % of control | dose: 200.0 mg/kg/injection, schedule: Q04DX003 (ip), vehicle: carboxymethylcellulose (CMC) 104 % of control | [3] 102 % of control | dose: 400.0 mg/kg/injection, schedule: Q04DX002 (ip), vehicle: carboxymethylcellulose (CMC) 95 % of control and 90 % of control | dose: 400.0 mg/kg/injection, schedule: Q04DX003 (ip), vehicle: carboxymethylcellulose (CMC) 86 % of control

C1=CC([P+](Cc2ccccc2)(c2ccccc2)c2ccccc2)CC1 (stereo not given)
inactive: dose: 6.25 mg/kg/injection, schedule: Q04DX003 (ip), vehicle: saline 95 % of control | dose: 12.5 mg/kg/injection, schedule: Q04DX003 (ip), vehicle: saline 90 % of control | dose: 25.0 mg/kg/injection, schedule: Q04DX003 (ip), vehicle: saline 96 % of control | dose: 50.0 mg/kg/injection, schedule: Q04DX003 (ip), vehicle: saline 93 % of control and 96 % of control

O=C(O)c1ccc(/C=N/Nc2nnc(N/N=C/c3ccc(C(=O)O)cc3)c3ccccc23)cc1
inactive: dose: 50.0 mg/kg/injection, schedule: Q01DX001 (ip), vehicle: carboxymethylcellulose (CMC) 113 % of control | [4] 113 % of control | [5] 107 % of control | [6] 104 % of control

COc1ccccc1C(C)=O
inactive: dose: 50.0 mg/kg/injection, schedule: Q01DX009 (ip), vehicle: Klucel (hydroxypropylcellulose) (HPC) 97 % of control | [7] 100 % of control | [8] 87 % of control

COc1ccccc1/C=C(\C(=O)O)c1cccc2ccccc12
inactive: [9] 93 % of control | [10] 100 % of control | dose: 400.0 mg/kg/injection, schedule: Q04DX003 (ip), vehicle: Klucel (hydroxypropylcellulose) (HPC) 98 % of control

CCN(C(=O)Nc1ccccc1F)c1cc(OC)ccc1C
inactive: [11] 91 % of control | [12] 86 % of control

Cc1coc2ccccc2c1=O
inactive: dose: 50.0 mg/kg/injection, schedule: Q04DX002 (ip), vehicle: gum acacia 114 % of control | dose: 100.0 mg/kg/injection, schedule: Q04DX002 (ip), vehicle: gum acacia 117 % of control | dose: 200.0 mg/kg/injection, schedule: Q04DX002 (ip), vehicle: gum acacia 107 % of control

COc1cc(-c2ccc(NC(=O)CC(C)=O)c(OC)c2)ccc1NC(=O)CC(C)=O
inactive: [12] 94 % of control | dose: 100.0 mg/kg/injection, schedule: Q04DX003 (ip), vehicle: saline with Tween-80 92 % of control | [13] 101 % of control | dose: 200.0 mg/kg/injection, schedule: Q04DX003 (ip), vehicle: saline with Tween-80 91 % of control | [14] 99 % of control | dose: 400.0 mg/kg/injection, schedule: Q04DX003 (ip), vehicle: saline with Tween-80 89 % of control

c1ccc(-c2nc3ccccn3n2)cc1
inactive: [15] 101 % of control | [16] 95 % of control | [17] 103 % of control

Cc1cc(CC#N)c(C)c([N+](=O)[O-])c1
inactive: dose: 25.0 mg/kg/injection, schedule: Q04DX003 (ip), vehicle: Klucel (hydroxypropylcellulose) (HPC) 96 % of control | [18] 89 % of control

Cc1n(C)c(=O)c2ccccc2[n+]1C
inactive: [15] 106 % of control | [16] 87 % of control | [17] 97 % of control

C[n+]1ccccc1/C=N/Nc1ccccc1
inactive: dose: 75.0 mg/kg/injection, schedule: Q01DX001 (ip), vehicle: other 96 % of control

NC(=S)N/N=C1/c2ccccc2-c2cc(Br)ccc21
inactive: [18] 106 % of control | [9] 97 % of control | [10] 100 % of control

CC1c2cc(C(=O)O)ccc2OC1(C)C (stereo not given)
inactive: [19] 96 % of control | [20] 102 % of control | [21] 91 % of control

Clc1ccc2c(c1)Sc1ccccc1O2
inactive: [22] 101 % of control | [23] 101 % of control | [24] 97 % of control

COc1ccccc1CN1CCCN(Cc2ccccc2OC)C1c1cccc(OC)c1O
inactive: [25] 95 % of control | [19] 101 % of control | [20] 93 % of control | [21] 93 % of control

CSc1ccc(NC(=O)N(Cc2ccccc2)c2ccccc2)cc1
inactive: [7] 106 % of control | [8] 101 % of control | dose: 400.0 mg/kg/injection, schedule: Q01DX009 (ip), vehicle: Klucel (hydroxypropylcellulose) (HPC) 95 % of control

CCOC(=O)NC1c2ccccc2Oc2ccccc21
inactive: dose: 75.0 mg/kg/injection, schedule: Q01DX009 (ip), vehicle: saline 115 % of control | [1] 102 % of control | dose: 150.0 mg/kg/injection, schedule: Q01DX009 (ip), vehicle: saline 103 % of control | [2] 105 % of control | dose: 300.0 mg/kg/injection, schedule: Q01DX009 (ip), vehicle: saline 111 % of control | [3] 102 % of control

O=C(CCCC(=O)N/N=C/c1ccc(Cl)cc1Cl)N/N=C\c1ccc(Cl)cc1Cl
inactive: [25] 97 % of control | [19] 97 % of control | [20] 93 % of control | [21] 97 % of control

[C-]#[N+]/C=C1\OC(=O)C=C1C
inactive: [22] 97 % of control | [23] 110 % of control | [24] 97 % of control

Cc1ccc(NC(N)=S)cc1C
inactive: dose: 25.0 mg/kg/injection, schedule: Q01DX009 (ip), vehicle: saline with Tween-80 105 % of control | [11] 90 % of control | [12] 86 % of control

CCCCCc1[nH]c(=O)[nH]c(=O)c1S(=O)(=O)N1CCCCC1
inactive: [15] 107 % of control | [16] 97 % of control | [17] 110 % of control

CSC(N)=Nc1ccc(C(=O)O)cc1
inactive: [12] 105 % of control | [13] 112 % of control | [14] 97 % of control

O=C(OCC(O)C(O)C(O)C(COC(=O)c1ccccc1)OC(=O)c1ccccc1)c1ccccc1 (stereo not given)
inactive: dose: 87.5 mg/kg/injection, schedule: Q01DX009 (ip), vehicle: carboxymethylcellulose (CMC) 87 % of control | [4] 98 % of control | dose: 175.0 mg/kg/injection, schedule: Q01DX009 (ip), vehicle: carboxymethylcellulose (CMC) 90 % of control | [5] 96 % of control | dose: 350.0 mg/kg/injection, schedule: Q01DX009 (ip), vehicle: carboxymethylcellulose (CMC) 87 % of control | [6] 93 % of control

Source: PubChem BioAssay AID248 (DTP/NCI, 2004)
